The record followed here is article PMC8399847, “Hybrid Quinolinyl Phosphonates as Heterocyclic Carboxylate Isosteres: Synthesis and Biological Evaluation against Topoisomerase 1B (TOP1B)” (Pharmaceuticals, 2021).

Molecules are shown by their SMILES.

Data set [1] can be described thus: CCK-8 cytotoxicity assay, MRC-5 non-cancerous cells. The conditions noted are these: human, MRC-5 non-malignant lung fibroblasts. It is filed as cell-based. On the procedure:
(§1) The cytotoxicity of the newly synthesized quinolinylphosphonates 7 was evaluated in vitro by testing their antiproliferative activities against several human cancer cell lines: A549 (human lung adenocarcinoma cells), SKOV3 (human ovarian carcinoma), and HEK293 (human embryonic kidney). In order to analyze the selective cytotoxicity facing exclusively cancerous cell lines, cytotoxicity against non-cancerous cell lines (MRC-5, lung fibroblast cells) was also evaluated. Cell counting kit (CCK-8) assay was employed to assess growth inhibition and, cell proliferation inhibitory activities of compounds that are listed in Table 1 as IC50 values. […] According to the data presented in Table 1, in general, all these phosphorated derivatives present higher selective cytotoxicity in the A549 cell line than in the other two cell lines, SKOV3 and HEK293, although slight differences are observed compared to human ovarian carcinoma (SKOV3).
(§2) Cells were cultured according to the supplier’s instructions, A549 (ATCC® CCL-185), SKOV3 (ATCC® HTB-77), HEK293 (CLS GmbH), MRC-5 (ATCC® CCL-171™). Cells were seeded in 96-well plates at a density of 2–2.5 × 10^3 cells per well and incubated overnight in 0.1 mL of media supplied with 10% Fetal Bovine Serum (Lonza, Basel, Switzerland) in a 5% CO2 incubator at 37 °C. On day 2, drugs (concentration between 0.5–50 μM) were added and samples were incubated for 48 h. After treatment, 10 μL of cell counting kit-8 was added to each well for an additional 2 h incubation at 37 °C. The absorbance of each well was determined by an Automatic Elisa Reader System at 450 nm wavelength. CPT was purchased from Sigma-Aldrich and used as a positive control.
For orientation: Tetrazolium dyes change colour on reduction, which living cells bring about.

The subject of data set [2] is leishmanial TOP1B (LTOP1B). Put plainly: LTOP1B relaxation activity assay. Type of data set: biochemical, Leishmania. The conditions noted are these: 100 µM of compound, 1 min. On the procedure: The inhibition of relaxation activity of LTOP1B by the compounds was tested at 100 µM. The reactions were performed for 1 min in the way described in the experimental protocols section. The percentage of inhibition was calculated by measuring the intensity of the band corresponding to the supercoiled DNA when the different DNA topoisomers were separated in an agarose gel.
Purification of leishmanial DNA topoisomerase 1B (LTOP1B) was carried out as reported previously. Shortly, LTOP1B was purified using the deficient in TOP1 activity yeast strain, EKY3 MAT α ura3–52 his3Δ20ting, from the union of the bicistronic expression vector pESC-URA to both subunits of LTOP1B. The yeast cells were grown in a yeast synthetic drop-out medium without uracil (Sigma) supplemented with 2% raffinose (w/v) to OD600: 0.8–1 and induced for 10 h with 2% galactose (w/v). After that, the cells were harvested, washed with cold TEEG buffer (50 mM Tris–HCl pH 7.4, 1 mM EDTA, 1 mM EGTA, 10% glycerol), resuspended in 15 mL of 1× TEEG buffer supplemented with 0.2 M KCl and a protease inhibitors cocktail (Thermo Scientific, Waltham, MA, USA) and lysed. Protein extract obtained was loaded on a 5 mL Heparin Sepharose column (GE Healthcare, MA, USA). LTOP1B enzyme was eluted at 4 °C with a discontinuous gradient of KCl (0.2, 0.4, 0.6 M) in TEEG buffer.
Leishmanial TOP1B activity was tested by the relaxation of supercoiled plasmid DNA assay. Each reaction contained: one unit of purified LTOP1B enzyme, 100 µM of each compound, 0.5 μg of supercoiled pSK DNA, 10 mM Tris-HCl buffer pH 7.5, 5 mM MgCl2, 0.1 mM EDTA, 15 µg/mL bovine serum albumin, and 150 mM KCl. The final volume of each reaction was 20 µL. Reaction mixtures were incubated for 1 min at 37 °C and stopped by the addition of a 4 µL loading buffer (5% sarkosyl, 0.12% bromophenol blue, 25% glycerol). The DNA topoisomers were resolved in 1% agarose gels by electrophoresis in 0.1 M Tris borate EDTA buffer (pH 8.0) at 2 V/cm for 16 h and visualized with UV illumination after ethidium bromide (0.5 μg/mL) staining. The percentage of inhibition was calculated by measuring the intensity of the band corresponding to the supercoiled DNA after separating and staining the different DNA topoisomers. This analysis was performed using the GeneTools from Syngene software (Version 4.3.8, MD, USA).

In data set [3] the test system is SKOV3 (human ovarian carcinoma). In words: CCK-8 cytotoxicity assay, SKOV3. Type of data set: cell-based. The settings on record: SK-OV-3, 48 h, read-out: Cytotoxicity IC50 Ovarian SKOV3. Here is the method: as §1, §2
The test system of data set [4] is L. infantum promastigotes. Put plainly: In vitro iRFP-L. infantum promastigotes viability assay. Type of data set: cell-based. The conditions noted are these: Leishmania infantum; 96 h exposure, EC50 ± SD. Here is the method:
The effect of the new quinolinylphosphonate derivatives 7 synthesized was assessed on both free-living promastigotes and intramacrophage amastigotes of L. infantum as it is described in experimental protocols. Primary cultures of intramacrophage amastigotes were obtained from splenic explants from 6-weeks infected Balb/c mice with L. infantum-iRFP promastigotes. The infrared fluorescence emitted by both stage forms of the parasite was used as viability criterium, using 0.5% DMSO as negative control (100% viability) and […] AMB as a positive control (0% viability).
A genetically modified strain of L infantum BCN 150, expressing iRFP protein from Rhodopseudomonas palustris bacteriophytochrome (iRFP-L. infantum), was used to obtain the EC50 values of the different compounds against promastigotes, through the detection of the near-infrared radiation emitted by living parasites exposed to tested molecules. Thus, the viability of promastigotes was calculated after recording their fluorescence at 708 nm in an Odyssey (Li-Cor, NE, USA) infrared imaging.
iRFP-L. infantum promastigotes were cultured using M199 medium (Gibco, Thermo Fisher Scientific, MA, USA), supplemented with 25 mM 4-(2-hydroxyethyl)-1-piperazineethanesulfonic acid (HEPES) pH 6.9, […] hemin, 10 mM glutamine, 0.1 mM adenosine, 0.01 mM folic acid, 1× RPMI 1640 vitamin mix (Sigma, Darmstadt, Germany), 10% (v/v) heat-inactivated foetal bovine serum (Gibco, Thermo Fisher Scientific, MA, USA), 50 U/mL penicillin and 50 µg/mL streptomycin. The assay was carried out, seeding 1 × 10^6 cells/mL of iRFP-L. infantum promastigotes into 96-well optical bottom black plates (Thermo Scientific, MA, USA) along with different concentrations of compound to each well. The final concentration of DMSO, the solvent used to prepare the stock solutions of compounds, was never higher than 0.1%. All of the compounds’ concentrations and controls were assayed by triplicate.

The test system of data set [5] is A549 (human lung adenocarcinoma cells). In words: CCK-8 cytotoxicity assay, A549. It is filed as cell-based. The settings on record: A549, 48 h, read-out: Cytotoxicity IC50 Lung A549. On the procedure:
as §1, §2

`CC(C)OP(=O)(OC(C)C)c1cccc2c(-c3ccc(F)cc3)cc(-c3ccc(F)cc3)nc12` [7n, Diisopropyl (2,4-bis(4-fluorophenyl)quinolin-8-yl)phosphonate]: the melting point (in general, the temperature, or range, at which the solid turns liquid) is 113 to 115 °C. The 50% inhibitory concentration (IC50) (as a rule, the concentration needed to halve the response being measured) at 48 h in data set [1] was more than 50 µM. Moreover, in data set [2], the “LTOP1B Inhibition” value stood at 43.31%. In data set [3], the concentration for half-maximal inhibition (IC50) came out at 19.8 ± 3.83 µM. Moreover, it took 4.86 ± 0.5 µM to reach a half-maximal effect in data set [4] (EC50). Further, the IC50 in data set [5] worked out at 10.6 ± 1.73 µM.
`CC(C)OP(=O)(OC(C)C)c1cccc2c(-c3ccc(F)cc3)cc(-c3ccc(F)c(F)c3)nc12` [7o, Diisopropyl (2-(3,4-difluorophenyl)-4-(4-fluorophenyl)quinolin-8-yl)phosphonate] returned a melting point of 144 to 146 °C. Also, in data set [1], the IC50 at 48 h is more than 50 µM. Also, in data set [2], the “LTOP1B Inhibition” value is 73.27%. The IC50 in data set [3] amounted to 22.1 ± 4.47 µM. Moreover, the response in data set [4] was half-maximal at 19.3 ± 1.79 µM (EC50). Besides, the IC50 in data set [5] turned out to be 6.79 ± 3.87 µM.
Turning to `Cc1ccc(-c2cc(-c3ccc(F)cc3)nc3c(P(=O)(OC(C)C)OC(C)C)cccc23)cc1` [7p, Diisopropyl (2-(4-fluorophenyl)-4-(p-tolyl)quinolin-8-yl)phosphonate], the melting point fell in the range of 121 to 123 °C. Moreover, the IC50 at 48 h in data set [1] is more than 50 µM. In addition, the “LTOP1B Inhibition” value in data set [2] is reported as 41.62%. Besides, the IC50 in data set [3] was found to be 12.1 ± 1.68 µM. Further, the EC50 – broadly, the concentration at which the effect is half-maximal – in data set [4] worked out at 5.01 ± 0.35 µM. In addition, the IC50 in data set [5] amounted to 6.84 ± 1.74 µM.
`Cc1ccc(-c2cc(-c3ccc(F)c(F)c3)nc3c(P(=O)(OC(C)C)OC(C)C)cccc23)cc1` [7q, Diisopropyl (2-(3,4-difluorophenyl)-4-(p-tolyl)quinolin-8-yl)phosphonate] came in with a melting point of 140 to 142 °C. In addition, the IC50 at 48 h in data set [1] was more than 50 µM. The “LTOP1B Inhibition” value in data set [2] was 52.65%. Also, in data set [3], the IC50 amounted to 4.67 ± 1.5 µM. The compound also displayed an EC50 in data set [4] of 7.46 ± 0.76 µM. Also, in data set [5], the IC50 is 8.24 ± 2.42 µM.
As to `CCOP(=O)(OCC)c1ccc2nc(-c3ccc(F)cc3)cc(-c3ccccc3)c2c1` [7r, Diethyl (2-(4-fluorophenyl)-4-phenylquinolin-6-yl)phosphonate], the melting point fell in the range of 137 to 139 °C. This compound also gave an IC50 at 48 h in data set [1] of more than 50 µM. Also, the “LTOP1B Inhibition” value in data set [2] came to 1.94%. Further, the concentration for half-maximal inhibition (IC50) in data set [3] stood at 3.03 ± 1.24 µM. This compound also returned an EC50 in data set [4] of 15.2 ± 1.14 µM. Also, the IC50 in data set [5] stood at 2.8 ± 1.24 µM.
In the case of `CCOP(=O)(OCC)c1ccc2nc(-c3ccc(F)c(F)c3)cc(-c3ccccc3)c2c1` [7s, Diethyl (2-(3,4-difluorophenyl)-4-phenylquinolin-6-yl)phosphonate], the melting point was in the range of 134 to 136 °C. In addition, in data set [1], the IC50 at 48 h was more than 50 µM. Besides, the “LTOP1B Inhibition” value in data set [2] amounted to 14.56%. In addition, the IC50 in data set [3] is more than 50 µM. Moreover, a half-maximal response in data set [4] (EC50) required 14.7 ± 1.78 µM. For the same compound, in data set [5], the IC50 turned out to be 6.19 ± 0.67 µM.
In turn, `CCOP(=O)(OCC)c1ccc2nc(-c3ccc(F)cc3)cc(-c3ccc(F)cc3)c2c1` [7t, Diethyl (2,4-bis(4-fluorophenyl)quinolin-6-yl)phosphonate] gave a melting point of 161 to 164 °C. Also, the IC50 at 48 h in data set [1] is more than 50 µM. In addition, the “LTOP1B Inhibition” value in data set [2] is listed as 37.86%. Also, the IC50 in data set [3] was more than 50 µM. In data set [4], this compound had an EC50 of 16.7 ± 0.72 µM. In addition, the concentration for half-maximal inhibition (IC50) in data set [5] was 2.85 ± 1.26 µM.
As to `CCOP(=O)(OCC)c1ccc2nc(-c3ccc(F)c(F)c3)cc(-c3ccc(F)cc3)c2c1` [7u, Diethyl (2-(3,4-difluorophenyl)-4-(4-fluorophenyl)quinolin-6-yl)phosphonate], the melting point is 130 to 132 °C. This compound also yielded an IC50 at 48 h in data set [1] of more than 50 µM. Besides, the “LTOP1B Inhibition” value in data set [2] came to 50.24%. Besides, in data set [3], the 50% inhibitory concentration (IC50) is more than 50 µM. The compound further had an EC50 in data set [4] of 7.07 ± 0.61 µM. Moreover, the IC50 in data set [5] was 4.33 ± 1.11 µM.
For the compound `CCOP(=O)(OCC)c1ccc2nc(-c3ccc(F)cc3)cc(-c3ccc(C)cc3)c2c1` [7v, Diethyl (2-(4-fluorophenyl)-4-(p-tolyl)quinolin-6-yl)phosphonate], the melting point is 153 to 155 °C. The same compound showed an IC50 at 48 h in data set [1] of more than 50 µM. For the same compound, the “LTOP1B Inhibition” value in data set [2] is recorded as 43.25%. The IC50 in data set [3] was determined as 41.6 ± 10 µM. The same compound yielded an EC50 in data set [4] of 7.02 ± 0.94 µM. In addition, the IC50 in data set [5] was found to be 0.84 ± 0.23 µM.
Regarding `CCOP(=O)(OCC)c1ccc2nc(-c3ccc(F)c(F)c3)cc(-c3ccc(C)cc3)c2c1` [7x, Diethyl (2-(3,4-difluorophenyl)-4-(p-tolyl)quinolin-6-yl)phosphonate], the melting point is 158 to 160 °C. In data set [1], the IC50 at 48 h was more than 50 µM. For the same compound, the “LTOP1B Inhibition” value in data set [2] is 43.84%. Besides, in data set [3], the concentration for half-maximal inhibition (IC50) is more than 50 µM. This compound also showed an EC50 in data set [4] of 21.3 ± 2.34 µM. Moreover, the IC50 in data set [5] was 3.05 ± 0.86 µM.
